What is called inhibition is the drop in the measured response relative to a control, in per cent.

Read-outs that look alike come from different tables or passages of the source.

For the assay, the system named is C. elegans. Kind of assay: microbe, parasite or virus in culture. The settings on record: Caenorhabditis elegans.
Where [1] appears, read: 0 h, read-out: Percentage of motility inhibition 0 h, Table S2, C. elegans SS assay, 110 μM, 0 h, averages of 4 data points.
Setting [2] is: 24 h, read-out: Percentage of motility inhibition 24 h, Table S2, C. elegans SS assay, 110 μM, 24 h, averages of 4 data points.

On to `COc1c(O[C@@H]2O[C@H](CO)[C@@H](O)[C@H](O)[C@H]2O)cc2occ(-c3ccc(O)cc3)c(=O)c2c1O` [Tectoridin], for which the inhibition at 110 µM came out at 1% under setting [1] and 11% under setting [2].
Regarding `COc1c(O)cc2occ(-c3ccc(O)cc3)c(=O)c2c1O` [Tectorigenin], the inhibition at 110 µM (0 h, read-out: Percentage of motility inhibition 0 h) is 0% and the inhibition at 110 µM (24 h, read-out: Percentage of motility inhibition 24 h) was determined as 0%.
On to `Cn1nnc(-c2ccc(-c3ccc(N4C[C@H](CO)OC4=O)cc3F)cn2)n1` [Tedizolid], for which the inhibition at 110 µM turned out to be 20% under setting [1] and 12% under setting [2].
The matching figures for `Fc1ccccc1-c1nc2ccn(Cc3ccc(-c4ccc(C(F)(F)F)cc4C(F)(F)F)nn3)cc-2n1` [Tegobuvir]: 68% and 34%.
On to `CCC[C@H](NC(=O)[C@@H]1[C@H]2CCC[C@H]2CN1C(=O)[C@@H](NC(=O)[C@@H](NC(=O)c1cnccn1)C1CCCCC1)C(C)(C)C)C(=O)C(=O)NC1CC1` [Telaprevir], for which the inhibition at 110 µM reads like this: under setting [1], 7%; under setting [2], 0%.
The matching figures for `Cc1cn([C@@H]2C[C@@H](O)[C@H](CO)O2)c(=O)[nH]c1=O` [Telbivudine]: 39% and 1%.
On to `C[C@H](Cn1cnc2c(N)ncnc21)OCP(=O)(O)O` [Tenofovir], for which the inhibition at 110 µM is, setting by setting: under setting [1], 22%; under setting [2], 16%.
The matching figures for `COc1ccc2c(c1)CC=C(CO)c1cc3c(cc1-2)OCO3` [Tenuifolin]: 0% and 1%.
The matching figures for `CN(C/C=C/C#CC(C)(C)C)Cc1cccc2ccccc12` [Terbinafine]: 31% and 0%.
For `CC(C)(C)NCC(O)c1cc(O)cc(O)c1` (stereo not drawn) [Terbutaline], the inhibition at 110 µM by setting is: under setting [1], 9%; under setting [2], 2%.
The matching figures for `CC(C)N1CCN(c2ccc(OCC3COC(Cn4cncn4)(c4ccc(Cl)cc4Cl)O3)cc2)CC1` (stereo not drawn) [Terconazole]: 26% and 3%.
In the case of `CC1(C)CC[C@]2(C(=O)O)CC[C@]3(C)C(=CC[C@@H]4[C@@]5(C)C[C@@H](O)[C@H](O)[C@@](C)(CO)[C@@H]5[C@H](O)C[C@]43C)[C@@H]2C1` [Terminolic acid], the inhibition at 110 µM came out at 26% under setting [1] and 10% under setting [2].
As to `CN(C)[C@@H]1C(O)=C(C(N)=O)C(=O)[C@@]2(O)C(O)=C3C(=O)c4c(O)cccc4[C@@](C)(O)[C@H]3C[C@@H]12` [Tetracycline], the inhibition at 110 µM runs as follows: under setting [1], 39%; under setting [2], 46%.
The matching figures for `COc1ccc2c(c1OC)CN1CCc3cc4c(cc3C1C2)OCO4` (stereo not drawn) [Tetrahydroberberine]: 2% and 0%.
`C[C@H](O)[C@H](O)[C@H]1CNc2nc(N)[nH]c(=O)c2N1` [Tetrahydrobiopterin]: the inhibition at 110 µM by setting is: under setting [1], 0%; under setting [2], 3%.
The matching figures for `O=C(CCCCc1ccc2c(c1)OCO2)N1CCCCC1` [Tetrahydropiperine]: 0% and 0%.
Consider `c1ccc(C2CN3CCSC3=N2)cc1` (stereo not drawn) [Tetramisole, reference compound], for which the inhibition at 110 µM was found to be 78 ± 2% (0 h, read-out: Inhibition (%) 110 μM (0 h), C. elegans L4 motility, 110 μM, 0 h, mean ± SD of four experiments) and 82 ± 3% (24 h, read-out: Inhibition (%) 110 μM (24 h), C. elegans L4 motility, 110 μM, 24 h, mean ± SD of four experiments).
On to `O=c1c(O)cc([C@H]2Oc3cc(O)cc(O)c3C[C@H]2O)cc2c([C@H]3Oc4cc(O)cc(O)c4C[C@H]3O)cc(O)c(O)c12` [Theaflavin], for which the inhibition at 110 µM by setting is: under setting [1], 11%; under setting [2], 5%.
The matching figures for `Cc1ncc(C[n+]2csc(CCO)c2C)c(N)n1` [Thiamine monochloride]: 13% and 6%.
Turning to `CS(=O)(=O)c1ccc([C@@H](O)[C@@H](CO)NC(=O)C(Cl)Cl)cc1` [Thiamphenicol], the inhibition at 110 µM runs as follows: under setting [1], 24%; under setting [2], 1%.
The matching figures for `Cc1nc(C(F)(F)F)c(C(=O)Nc2c(Br)cc(OC(F)(F)F)cc2Br)s1` [Thifluzamide]: 69% and 29%.
